Reference: US8916524B2, “Composition for improving brain function and method for improving brain function” (Calpis Co., Ltd., priority 2010, dated 2014)

test system: scopolamine-induced amnesia; assay: Y-shaped maze test of spontaneous alternation behavior, prophylactic activity against scopolamine-induced amnesia; type: in vivo, mice (ddY strain); settings: male ddY mice; 5000 nmol/kg weight once orally 60 minutes before Y-shaped maze test; scopolamine 1 mg/kg weight subcutaneously 30 minutes before test
Experimental: Male mice (n=15) of the ddY strain (approximately 7-week old) were used, and they took food and water ad lib. Test substances used were 500 nmol/kg weight (230 ug/kg weight) and 5000 nmol/kg weight (2300 ug/kg weight) of Val-Pro-Pro-Phe (SEQ ID NO: 2). The test substances were administered to the mice once orally 60 minutes before the execution of a Y-shaped maze test for evaluation of spontaneous alternation behavior. Further, 30 minutes before the execution of the Y-shaped maze test, 1 mg/kg weight of scopolamine was subcutaneously administered on the backs of the mice in order to induce brain dysfunction (dysmnesia and/or cognitive impairment) in the mice. In the Y-shaped maze test, a Y-shaped maze was used as an experimental device, in which the length of each arm was 40 cm, the height of the wall was 12 cm, the width of the floor was 3 cm, and the width of the upper part was 10 cm, and three arms were connected to each other at an angle of 120 degrees. […] The sequence of the arms each of the mice entered was recorded. The number of entries by each of the mice for each of the arms during the measurement time was counted to be the total number of entries. […] The percentage of spontaneous alternation behavior was calculated by dividing the number of spontaneous alternation behavior by a number obtained by subtracting 2 from the total number of entries, and multiplying a resultant number by 100. […] The measured values were expressed in the form of mean±standard error for each group. A significant difference between the control group and the scopolamine control group was calculated using Student's t-test. Further, a significant difference between the scopolamine control group and the VPPF-administered group was calculated using Dunnett's multiple comparison test after one-way analysis of variance.
Male mice (n=15) of the ddY strain (approximately 7-week old) were used, and they took food and water ad lib. […] The arms each of the mice entered were sequentially recorded. […]

Substance | prophylactic activity against amnesia (percentage of spontaneous alternation behavior)
Val-Pro-Pro-Phe (VPPF; Synthetic functional peptide) | had a prophylactic activity against amnesia
Asn-Ile-Pro-Pro-Leu (NIPPL; Synthetic functional peptide) | had a prophylactic activity against amnesia
Ile-Pro-Pro-Leu (IPPL; Synthetic functional peptide) | had a prophylactic activity against amnesia
